Reference: patent publication US11419875B2, “Compounds and compositions for treating hematological disorders” (Aurigene Discovery Technologies Limited, priority 2017, dated 2022)

Columns and labels:
MOLM-13 cell line = assay: Anti-proliferative activity, MOLM-13 cell line (Example 5, CellTiter Glo); format: cell-based; settings: Homo sapiens, Example 5 procedure, 5,000 cells/well
Description: (§1) The same procedure was used for both the MV4-11 cells and MOLM-13 cells. Each cell line has an ITD mutation in the FLT-3 kinase.
(§2) The cells were grown to ˜80% confluence, split in half and grown overnight. The cells were seeded at a density of 5,000 cells/well in a volume of 150 μL into a 96-well black plate in all wells except columns 1 and 12 and rows A and H. They were incubated overnight in 10% serum and HBSS was added to wells on the periphery. In a deep 96-well plate, 1000 μL of 10% FBS was added into wells B2 and D2. 750 μL of 10% FBS, 1% DMSO medium per well was added in row B except well B2. 5 μL of 20 mM compound was added into well B2. 250 μL was transferred from column 2 to column 3 and mixed. The process was repeated until column G to give a 1:4 dilution. 15 μL of compound mixture was added to each well of the cell plate (135 μL volume).

[1] = tested on: MOLM-14 FLT3-ITD/F691L tumors; assay: MOLM-14 FLT3-ITD/F691L mouse xenograft tumor model; format: in vivo, athymic nude mice; settings: 100 mg/kg orally once-daily, after 12 or 14 days of dosing
Text: (§3) Compound A efficacy was compared to mice administered vehicle.

MV4-11 cells [2] = assay: AML xenograft model MV4-11, in vivo tumor growth inhibition
Description: ND-2158 at 100 mpk was used as a control.
MV4-11 cells were grown in Iscove's Modified Dulbecco's medium supplemented with 10% FBS and 1% penicillin streptomycin. To establish tumors, 15×10^6 MV4-11 cells were injected subcutaneously in 200 μl of 1:1 HBSS and ECM gel into the right flank of the athymic nude mice. Animals were randomized based on tumor volumes. […] Treatments were initiated when the average tumor volume sizes were 333 mm^3. Tumor volumes were measured three times a week and body weights were monitored daily.

MV4-11 cells [3] = assay: MV4-11 CellTiter Glo cell viability/proliferation assay (Example 2); format: cell-based; settings: Homo sapiens, procedure of Example 2, read-out: IC50, inhibition of proliferation in MV4-11 cells
Description: The CellTiter Glo Luminescent cell viability assay is a highly sensitive homogenous assay to determine the number of viable cells in culture based on quantitation of ATP levels in metabolically active cells. Addition of CTG reagent results in cell lysis and generation of a luminescent signal proportional to the amount of ATP present. The amount of ATP is proportional to the number of cells present. The luminescence is measured using a multilabel reader capable of measuring luminescence. An increase or decrease in cell numbers results in a concomitant change in luminescene level, indicating the effect of the test material on cellular proliferation.
CellTiter-Glo buffer was thawed and equilibrated to room temperature. Lyophilized CellTiter-Glo substrate was brought to room temperature. CTG reagent is prepared by mixing the CellTiter-Glo buffer (Promega Cat #G7572) into an amber bottle containing CellTiter-Glo substrate to reconstitute the lyophilized enzyme/substrate mixture. Both Buffer and the lyophilized substrate are supplied with the kit.
Add 1% Penicillin Streptomycin and 10% FBS to commercially available liquid IMDM (Iscove's Modified Dulbecco's Medium, Invitrogen Cat #12440046).
1. MV4-11 cells were counted and re-suspended to a density of 0.1×10^6 cells/ml in complete IMDM medium. 95 μL of this cell suspension was added per well of a 96-well plate (black plate with clear bottom) to seed ˜0.1×10^5 cells per well. The plates were incubated at 37° C. under a humidified atmosphere of 5% CO2 for ˜2 hours before compound addition. 2. Test compounds were dissolved in 100% DMSO to generate a 2/6/10/20 mM stock solution. A 200× concentration of the required final concentrations was prepared in DMSO. 10 μL of each concentration (200×) was then diluted in 90 μL of serum-free IMDM to prepare an intermediate concentration of 20× in medium. The DMSO concentration in this step was 10% (Intermediate dilution). 5 μL of each intermediate dilution was then added in triplicates to cells previously seeded in 96-well plate. The final DMSO concentration was 0.5% in the experimental wells. Cells treated with 0.5% DMSO served as a positive control. 100 μL of complete IMDM medium served as media blank for data analysis. 200 μL of 1×PBS was added in all corner wells of the assay plate to avoid evaporation of media in experimental wells. Plates were then incubated for 72 hours in an incubator with 5% CO2 at 37° C. 3. To terminate the assay, 50 μL of CTG reagent was added to each well and the plate was incubated at room temperature for 15 minutes on a shaker. The plate was read using the luminescence mode on a multilabel reader capable of measuring luminescence. The luminescence values were plotted against respective concentrations of the test item using GraphPad Prism to calculate the IC50 value for the test item. Percent Inhibition is Calculated as Follows: […]
Positive control wells contained cells, IMDM medium and 0.5% DMSO. Blank control wells contained IMDM medium alone.

[4] = tested on: MOLM-14 FLT3-ITD/D835Y tumors; assay: MOLM-14 FLT3-ITD/D835Y mouse xenograft tumor model; format: in vivo, athymic nude mice; settings: 100 mg/kg orally once-daily, after 12 or 14 days of dosing
Text: as §3

[5] = tested on: MOLM-14 cell line (FLT3-ITD); assay: Cell viability assay (CellTiter-Glo, 72 h), parental MOLM-14; format: cell-based; settings: Homo sapiens, mean of at least 3 assays
Description: (§4) The parental MOLM-14 cell line contained a FLT3-ITD mutation. Quizartinib-resistant MOLM-14 derivative cell lines MOLM-14 FLT3-ITD/D835Y and MOLM-14 FLT3-ITD/F691L contained a double FLT3 mutation (the original ITD mutation and a secondary mutation within the kinase domain).
(§5) All cells lines were cultured in RPMI 1640+GlutaMAX supplemented with 1× Pen-Strep and 10% FBS (referred to as media hereafter). Cells were cultured in 75 cm^2 or 225 cm^2 tissue culture flasks in a 37° C. humidified tissue culture incubator with 5% CO2. Cell densities were maintained between 0.5-2.0×10^6 cells/mL.
(§6) Two days before compound treatment, cells were pelleted and resuspended in fresh medium. The day of dosing, cells were counted and stained with trypan blue to determine cell viability. 5,000 viable cells were transferred in a volume of 90 μL or 135 μL per well to all wells of a 96-well tissue culture plate and returned to the tissue culture incubator. […]
(§7) After 72 h incubation, cell viability was assessed using the CellTiter-Glo Luminescent Cell Viability Assay (2.0) according to the vendor's instructions. […] Luminescence readings were measured using a TopCount384 instrument.
(§8) The percent inhibition of the compound treated samples was determined relative to the DMSO-treated cell control samples. […] The mean EC50 values from at least 3 independent viability assays performed on different days were determined.

MV4-11 cell line = assay: Anti-proliferative activity, MV4-11 cell line (Example 5, CellTiter Glo); format: cell-based; settings: Homo sapiens, Example 5 procedure, 5,000 cells/well
Description: as §1, §2

MOLM-14 FLT3-ITD tumors = assay: MOLM-14 FLT3-ITD mouse xenograft tumor model; format: in vivo, athymic nude mice; settings: 100 mg/kg orally once-daily, after 12 or 14 days of dosing
Text: as §3

MOLM-14 FLT3-ITD/D835Y = assay: Cell viability assay (CellTiter-Glo, 72 h), MOLM-14 FLT3-ITD/D835Y; format: cell-based; settings: Homo sapiens, mean of at least 3 assays
Description: as §4, §5, §6, §7, §8

MOLM-14 FLT3-ITD/F691L = assay: Cell viability assay (CellTiter-Glo, 72 h), MOLM-14 FLT3-ITD/F691L; format: cell-based; settings: Homo sapiens, mean of at least 3 assays
Description: as §4, §5, §6, §7, §8

`Cc1cc(-c2nc(C(=O)Nc3cc4oc(N5CCOCC5)nc4nc3N3CC[C@@H](O)C3)co2)ccn1` [Compound A] was tested, and the IC50 (MOLM-13 cell line) was 0.19 µM, the “percent tumor growth inhibition (% TGI)” value [1] was 73% and the tumor growth inhibition (MV4-11 cells [2]; 12.5 mg/kg orally once daily, 21 days) was 92%. For the same molecule, the tumor response (MV4-11 cells [2]; 25 mg/kg orally once daily, 21 days) was “partial tumor regression”, the tumor response (MV4-11 cells [2]; 50 mg/kg orally once daily, 21 days) was “partial tumor regression” and the “tolerability (clinical signs, gross pathological changes)” value (MV4-11 cells [2]; 12.5, 25, and 50 mg/kg orally once daily, 21 days) was “well tolerated without any treatment related clinical signs and gross pathological changes”. The tumor response (MV4-11 cells [2]; 12.5 mpk, after 21 days of treatment) was “Tumor growth stasis”, the body weight (MV4-11 cells [2]; all treatment groups, 21 days, FIG. 4) was “No body weight reduction was observed” and the IC50 (MV4-11 cells [3]) was 0.031 µM. The “percent tumor growth inhibition (% TGI)” value [4] was 98%, the EC50 [5] was 0.058 µM and the IC50 (MV4-11 cell line) was 0.07 µM. For the same molecule, the “percent tumor growth inhibition (% TGI)” value (MOLM-14 FLT3-ITD tumors) was 90%, the EC50 (MOLM-14 FLT3-ITD/D835Y) was 0.108 µM and the EC50 (MOLM-14 FLT3-ITD/F691L) was 2.49 µM.
